Target: RAC-alpha serine/threonine-protein kinase (Homo sapiens, UniProt P31749)
Experiment: TR-FRET assay: For the assay 50 nl of a 100fold concentrated solution of the test compound in DMSO was pipetted into a black low volume 384well microtiter plate (Greiner Bio- One, Frickenhausen, Germany), 2 ul of a solution of Akt1 in assay buffer [50 mM TRIS/HCI pH 7.5, 5 mM MgCI2, 1 mM dithiothreitol, 0.02% (v/v) Triton X-100 (Sigma)] were added and the mixture was incubated for 15 min at 22 C to allow pre-binding of the test compounds to the enzyme before the start of the kinase reaction. Then the kinase reaction was started by the addition of 3 ul of a solution of adenosine-tri-phosphate (ATP, 16.7 ul => final cone, in the 5 ul assay volume is 10 ul) and substrate (1 .67 ul => final cone, in the 5 ul assay volume is 1 ul) in assay buffer and the resulting mixture was incubated for a reaction time of 60 min at 22 C. The concentration of Akt1 in the assay was adjusted depending of the activity of the enzyme lot.

RAC-alpha serine/threonine-protein kinase, sequence (P31749 whole entry): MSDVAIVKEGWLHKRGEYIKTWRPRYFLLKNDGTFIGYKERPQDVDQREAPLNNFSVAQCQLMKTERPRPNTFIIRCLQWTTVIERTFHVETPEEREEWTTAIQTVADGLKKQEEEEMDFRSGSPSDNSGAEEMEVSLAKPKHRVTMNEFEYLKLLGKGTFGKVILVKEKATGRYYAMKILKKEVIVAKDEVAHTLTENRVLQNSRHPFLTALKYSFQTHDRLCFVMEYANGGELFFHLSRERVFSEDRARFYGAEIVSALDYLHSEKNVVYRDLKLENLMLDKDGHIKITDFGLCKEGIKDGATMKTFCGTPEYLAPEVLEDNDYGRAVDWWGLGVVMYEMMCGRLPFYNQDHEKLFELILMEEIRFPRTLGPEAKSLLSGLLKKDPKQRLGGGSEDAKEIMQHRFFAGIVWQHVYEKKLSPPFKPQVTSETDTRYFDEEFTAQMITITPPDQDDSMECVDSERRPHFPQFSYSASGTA

Row | SMILES | IC50
1 | N#Cc1cccc(-c2cccc3c2nn2cc(-c4ccccc4)c(-c4ccc(C5(N)CCC5)cc4)nc32)c1 | 10000 nM
2 | N#Cc1cccc2c1nn1cc(-c3ccccc3)c(-c3ccc(C4(N)CCC4)cc3)nc21 | 49 nM
3 | NC1(c2ccc(-c3nc4c5cccc(O)c5nn4cc3-c3ccccc3)cc2)CCC1 | 100 nM

More lines, now with the values ahead:

Row | IC50 | SMILES
4 | 93 nM | NC1(c2ccc(-c3nc4c5cc(F)ccc5nn4cc3-c3ccccc3)cc2)CCC1
5 | 110 nM | NC1(c2ccc(-c3nc4c5cc(-c6ccc(F)cc6)ccc5nn4cc3-c3ccccc3)cc2)CCC1
6 | 67 nM | N#Cc1cccc(-c2ccc3nn4cc(-c5ccccc5)c(-c5ccc(C6(N)CCC6)cc5)nc4c3c2)c1
7 | 320 nM | N#Cc1ccc(-c2cccc3nn4cc(-c5ccccc5)c(-c5ccc(C6(N)CCC6)cc5)nc4c23)cc1
